Source: paper PMC12010006, “Subnanomolar MAS-related G protein-coupled receptor-X2/B2 antagonists with efficacy in human mast cells and disease models” (Signal Transduction and Targeted Therapy, 2025)
Entries after “also recorded” stand apart in the source; their conditions may differ.

Key:
[1] = target: T1, MRGPRX3 (Homo sapiens, UniProt Q96LB0); assay: β-arrestin assay, CHO cells expressing MRGPRX3 (subtype selectivity); format: cell-based; details: 10 µM, versus PSB-20294
T1 construct: inferred from the enzyme-complementation principle of the assay; expressed in transfected cells; host or cells: CHO-K1 beta-arrestin-2 (EA) cells
T1 sequence (Q96LB0 whole entry): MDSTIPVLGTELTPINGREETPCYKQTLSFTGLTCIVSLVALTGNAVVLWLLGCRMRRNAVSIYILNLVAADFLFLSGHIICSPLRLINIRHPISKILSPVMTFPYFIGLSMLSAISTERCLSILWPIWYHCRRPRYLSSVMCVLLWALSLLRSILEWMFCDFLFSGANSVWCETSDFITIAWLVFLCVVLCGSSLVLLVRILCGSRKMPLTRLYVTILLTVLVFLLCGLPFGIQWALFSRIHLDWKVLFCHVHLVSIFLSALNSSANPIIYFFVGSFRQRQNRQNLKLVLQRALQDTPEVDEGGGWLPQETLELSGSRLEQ
Experimental: Fig. 1 Characterization of MRGPRX2 inhibitor 1. a Chemical structure and molecular weight (MW) of 1. b Concentration-response curve of 1 determined in β-arrestin recruitment assays. CHO cells that recombinantly express MRGPRX2 were employed versus the agonist CST-14 (at its EC80 value of 1.0 µM). […] Data are means ± SEM of 3 biological replicates, performed in duplicates. c MRGPRX subtype selectivity of 1 (10 µM) determined in β-arrestin assays using CHO cells that recombinantly express the respective MRGPRX subtype. MRGPRX1 was activated by BAM-22P (8.5 µM),[19] MRGPRX2 was activated by CST-14 (1 µM), MRGPRX3 was activated by PSB-20294 (1 µM), and MRGPRX4 by PSB-18061 (2.6 µM).[44] […] The effect of each MRGPRX agonist was assessed in the absence and in the presence of 1; results were normalized to the maximal agonist effect. […] Statistical significance was determined by one-way ANOVA (Tukey’s multiple comparisons) test (ns P > 0.05 and ****P < 0.0001) TEXT PRINTED IN THE PICTURE: (a) 1 Hit compound: MW: 241.29 g/mol
Fig. 3 Biological characterization of PSB-172656. a Selectivity of PSB-172656 (100 nM) for MRGPRX2 over MRGPRX1, MRGPRX3, and MRGPRX4 measured in β-arrestin assays utilizing β-arrestin-CHO cells with recombinant expression of the respective receptor. […] Statistical significance was determined by one-way ANOVA (Tukey’s multiple comparison) test (ns P > 0.05). […]

[2] = target: T2, MRGPRX2 (Homo sapiens, UniProt Q96LB1); assay: Ca2+ mobilization in LAD2 cells; format: cell-based; details: stimulation with clomipramine (16.0 µM), paroxetine (18.1 µM), desipramine (34.4 µM); listed as PSB-172656
T2 sequence (Q96LB1 1-330): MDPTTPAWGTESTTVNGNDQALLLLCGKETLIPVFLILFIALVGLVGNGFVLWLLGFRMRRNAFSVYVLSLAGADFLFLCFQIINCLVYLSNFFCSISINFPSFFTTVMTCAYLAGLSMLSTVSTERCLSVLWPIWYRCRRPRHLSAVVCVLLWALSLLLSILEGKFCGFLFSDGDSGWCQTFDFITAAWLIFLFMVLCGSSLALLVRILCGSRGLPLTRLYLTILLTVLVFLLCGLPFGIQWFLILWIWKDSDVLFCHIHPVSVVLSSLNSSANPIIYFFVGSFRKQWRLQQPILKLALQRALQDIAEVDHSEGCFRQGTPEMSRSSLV
Description: PSB-172656 inhibited MRGPRX2-mediated Ca^2+ mobilization in LAD2 cells (see Supplementary Fig. S4).
Blocking of MRGPRX2 by the selective antagonist PSB-172656. […] Arrows indicate addition of stimulus; graphs represent means ± SEM of three independent experiments.

Row | inhibition of MRGPRX3 activation [1] | Structure (SMILES) | effect on MRGPRX2-mediated Ca2+ mobilization in LAD2 cells [2]
1 | not able to block | CCc1c(C(C)C)[nH]c2nc3cc(F)c(F)cc3n2c1=O [Compound 24, 3-ethyl-7,8-difluoro-2-isopropylbenzo[4,5]imidazo [1,2-a] pyrimidin-4(1H)-one] | decreased Ca^2+ mobilization; also recorded: inhibited
2 | no inhibition | CCCc1c(C)[nH]c2nc3ccccc3n2c1=O [Compound 1, 2-methyl-3-propylbenzo[4,5]imidazo[1,2-a]pyrimidin-4(1H)-one] | 
